Active and inactive are the calls of the source.
Assays:
HeLa = test: viability loss in HeLa cells – cell-based, 24 h, cherry-picked samples, cytotoxicity control, dose response (AID 504726); format: functional; conditions: Homo sapiens;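 also: potency for cytotoxicity as loss of luminescence signal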
[1] = molecular target: FAD-linked sulfhydryl oxidase ALR (Homo sapiens, UniProt P55789); test: ALR-catalysed DTT oxidation blockers – biochemical, H2O2 detection, luminescence, cherry-pick, dose response (AID 493248)
[2] = antiviral protection against BTV-induced cell death – arbovirus, BSR cells, confirmation (AID 1250); format: functional;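 also: protection from viral cytopathic effect measured as cell viability by ATP luminescence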
HT-1080 = test: HT1080 cell viability loss – fluorescence readout (AID 620); format: functional, cell-based; conditions: Homo sapiens
[3] = molecular target: Luciferin 4-monooxygenase (Photinus pyralis, UniProt P08659); test: Counter Screen for Luciferase-based Assay Positives. [Related pubchem assays: 620, 618, 411 ]
Vero = test: host cell viability loss, Vero E6 – synthesized analogs, cytotoxicity control for West Nile virus antiviral project, SAR follow-up (AID 2244); format: functional; conditions: Chlorocebus sabaeus
Cytochrome P450 2D6 = Cytochrome P450 2D6 (Homo sapiens, UniProt P10635); test: qHTS Assay for Inhibitors and Substrates of Cytochrome P450 2D6. [Related pubchem assays: 410 ]; format: ADME; conditions: read-out: Potency
Cytochrome P450 2D6, sequence (P10635 whole entry): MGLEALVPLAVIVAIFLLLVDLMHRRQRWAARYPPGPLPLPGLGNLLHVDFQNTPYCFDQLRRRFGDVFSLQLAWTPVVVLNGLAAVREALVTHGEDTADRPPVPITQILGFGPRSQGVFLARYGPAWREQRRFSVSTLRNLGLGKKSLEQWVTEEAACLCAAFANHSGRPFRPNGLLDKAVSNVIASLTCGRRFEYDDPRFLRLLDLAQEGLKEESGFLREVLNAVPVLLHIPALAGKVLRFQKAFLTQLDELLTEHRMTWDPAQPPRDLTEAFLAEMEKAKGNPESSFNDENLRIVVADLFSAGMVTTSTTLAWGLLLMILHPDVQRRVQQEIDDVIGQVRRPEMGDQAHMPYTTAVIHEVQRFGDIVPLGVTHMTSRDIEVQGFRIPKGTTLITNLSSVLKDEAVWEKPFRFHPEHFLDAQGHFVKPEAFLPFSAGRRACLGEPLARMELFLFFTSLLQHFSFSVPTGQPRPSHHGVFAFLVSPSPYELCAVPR

Luciferin 4-monooxygenase, sequence (P08659 whole entry): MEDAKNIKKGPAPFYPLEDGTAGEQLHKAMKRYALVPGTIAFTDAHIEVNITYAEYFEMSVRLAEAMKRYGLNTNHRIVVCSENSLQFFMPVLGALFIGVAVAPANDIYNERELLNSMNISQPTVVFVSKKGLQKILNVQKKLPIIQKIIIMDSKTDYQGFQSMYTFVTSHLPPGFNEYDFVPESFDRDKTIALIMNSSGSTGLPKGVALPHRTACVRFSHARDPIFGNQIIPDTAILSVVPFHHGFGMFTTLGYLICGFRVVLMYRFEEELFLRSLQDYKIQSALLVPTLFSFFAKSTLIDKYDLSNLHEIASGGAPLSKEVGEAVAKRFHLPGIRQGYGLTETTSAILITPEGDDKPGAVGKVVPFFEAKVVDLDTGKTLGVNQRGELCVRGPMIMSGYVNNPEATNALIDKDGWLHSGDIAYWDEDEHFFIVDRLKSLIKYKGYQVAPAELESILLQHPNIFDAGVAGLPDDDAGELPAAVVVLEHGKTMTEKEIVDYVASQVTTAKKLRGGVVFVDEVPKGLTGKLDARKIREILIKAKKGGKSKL
FAD-linked sulfhydryl oxidase ALR, sequence (P55789 whole entry): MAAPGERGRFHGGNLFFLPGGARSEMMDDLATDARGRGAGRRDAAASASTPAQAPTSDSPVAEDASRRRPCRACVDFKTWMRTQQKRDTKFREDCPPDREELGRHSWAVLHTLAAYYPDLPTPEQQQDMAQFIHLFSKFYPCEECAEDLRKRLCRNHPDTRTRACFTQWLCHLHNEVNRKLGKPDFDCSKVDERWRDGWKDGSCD

With `NNc1nc2sc3c(c2c(=O)n1C1CCCCC1)CCN(Cc1ccccc1)C3` the AC50 (HeLa) was 46 µM (active).
For `CCN(CC)c1ccc(NC(=O)c2c(OC)cccc2OC)c(C)c1`, the AC50 [1] was 0.84 µM (active) and the IC50 [2] was 23.5 µM (active).
In the case of `COc1ccc(-c2cc(C(=O)O)c(C)o2)cc1OC`, the EC50 (HT-1080) is reported as > 50 µM (not active) and the EC50 [3] is reported as 4.68 µM (active).
In the case of `COc1ccc(-c2csc(NC(=O)c3ccccc3Cl)n2)cc1`, the CC50 (Vero) is reported as > 40 µM (active).
With `CC[C@@H]1[C@H]2CCCCN3[C@@H]2[C@@H](C[C@H]3[C@@H]2C[C@H](C)C(=O)O2)[C@@H]2[C@H]1OC(=O)[C@H]2C` the AC50 (Cytochrome P450 2D6) was 10 µM (inconclusive).

— ChEMBL document CHEMBL1201862, “PubChem BioAssay data set” (2004)
